Experimental data taken from patent US20220280594A1, “APPLICATION OF POLYPEPTIDE OR DERIVATIVE THEREOF” (CHENGDU HUITAI BIOMEDICINE CO., LTD., priority 2019, published 2022).
Ends that are not written are not given here. PEG = not defined here

Columns and labels:
[1] = tested on: human breast cancer cells (MDA-MB-231); experiment: scratch assay, migration of MDA-MB-231 cells; assay type: cell-based; settings: MDA-MB-231, 10 μM, 48 hours; control group 36.19 ± 5.15
Method: (§1) In the scratch assay, the cell migration rate was negatively correlated with the inhibitory effect of the drug component on tumor cell migration ability. The cell migration inhibition experiment was described as follows: tumor cells were cultured in vitro, cells in logarithmic growth phase were collected and seeded evenly in a 24-well plate at a density of 1-2×10^5 cells/well; the cells were cultured in a cell incubator until a monolayer was formed; a scratch tool was used to make a “-” (straight) scratch on the monolayer of cells; the cells were washed 1-3 times with PBS, and a medium (with 2% fetal bovine serum) containing specific test components was added to the culture. Experimental grouping: PBS control group; polypeptide or derivative thereof treatment group (N1-N54), 10 μM. Three independent parallel wells were set up in each group, and the cells were cultured continuously in a cell incubator for 48 hours. […] At least 3 representative images for each well were taken. ImageJ software was used to count the migration distance of the cells, and the cell migration rate was calculated as: cell migration rate (%)=(width of original scratch−width of current scratch)/width of original scratch×100.
This example was a scratch assay to evaluate the inhibitory effect of the polypeptide or derivative thereof (N1-N54) on the migration ability of human breast cancer cells (MDA-MB-231). The experimental method was as described in Example 2.

[2] = tested on: human colon cancer cells (HCT-116); experiment: scratch assay, migration of HCT-116 cells; assay type: cell-based; settings: HCT-116, 10 μM, 48 hours; control group 47.78 ± 6.07
Method: as §1
This example was a scratch assay to evaluate the inhibitory effect of the polypeptide or derivative thereof (N1-N54) on the migration ability of human colon cancer cells (HCT-116). The experimental method was as described in Example 2.

[3] = tested on: human pancreatic cancer cells (PANC-1); experiment: transwell invasion assay, PANC-1 cells; assay type: cell-based; settings: PANC-1 transwell invasion, 10 μM, 24 hours; control group 727 ± 68
Text: The Transwell chamber system was used in the transwell cell invasion experiment. The chamber has an upper layer and a lower layer, which are separated by an artificial semipermeable membrane in the middle. The upper surface of the semipermeable membrane is coated with a layer of artificial matrigel to simulate extracellular matrix. Cells that have invaded through the matrigel and semi-permeable membrane will attach to the lower surface of the semi-permeable membrane. The invasion ability is evaluated by counting the number of cells on the lower surface of the semi-permeable membrane. The number of cells that have invaded is negatively correlated with the inhibitory effect of the drug on the invasion ability of the tumor cells. Transwell invasion assay was performed as follows: tumor cells were cultured in vitro, cells in logarithmic growth phase were collected, and cell suspension was prepared with fresh serum-free medium at a density of 2-3×10^5 cells/mL. Cells were inoculated, 100 μL/well cell suspension (serum-free medium) in the upper chamber and 600 μL/well complete culture medium in the lower chamber. After incubated in 37° C., 5% CO2 incubator for 4-5 hours, serum-free medium (100 μL/well) was added to the control group, and serum-free medium containing polypeptide or derivative thereof (N1-N54) was added to the upper chamber of the treatment group (100 μL/well), the final concentration of the peptide or derivative thereof in the upper chamber was 10 μM. The cells were incubated continuously for 24 hours, and then fixed with methanol and stained with crystal violet. Images were taken under a microscope and the number of invaded cells was counted with ImageJ.
This example was the transwell cell invasion experiment to evaluate the inhibitory effect of the polypeptide or derivative thereof (N1-N54) on the invasion ability of human pancreatic cancer cells (PANC-1). The experimental method was as described in Example 4.

[4] = tested on: human lung cancer cells (A549) subcutaneous xenograft; experiment: lung cancer subcutaneous xenograft animal model, intravenous injection; assay type: in vivo, mice (BALB/c-nu/nu); settings: intravenous 60 mg/kg once every other day, 20 days; for Weight of tumor (g) (mean ± SD): control 2.53 ± 0.17; for Volume of tumor (mm^3) (mean ± SD): control 3373.26 ± 581.44
Method: Experimental animals: 4-6 weeks old female immunodeficiency mice (BALB/c-nu/nu, Beijing Vital River Laboratory Animal Technology Co., Ltd.).
Subcutaneous xenograft animal model. The number of cells inoculated subcutaneously vin mice was about 2×10^6/200 μL. When the volume of the subcutaneous tumor was greater than 100 mm^3, the mice were randomly divided into groups and subjected to treatment. When the mass volume of the tumors in model control group reached 2000 mm^3 or the animal dies, the treatment ended. The animals were dissected, the tumors were taken out, and the weight and volume of the tumors were measured. During the period of the entire experiment, the mice were observed and the body weight was measured every other day.
The method used in the efficacy test on the lung cancer subcutaneous xenograft animal model was as described in Example 5. The lung cancer cells were the human lung cancer cells (A549), and the route of administration was intravenous injection. This example involved a total of 3 experiments to evaluate N1-N15, N16-N30, and N31-N54 respectively. The experimental procedure, route of administration, dosage and frequency of administration, and detection method were all consistent in the three experiments. The experimental groups were model control group and polypeptide or derivative thereof treatment groups (N1-N15, N16-N30, or N31-N54). The drug dosage of the N1-N54 treatment groups was 60 mg/kg, and the treatment time was 20 days.

[5] = tested on: human non-small cell lung cancer cells (A549); experiment: scratch assay, migration of A549 cells; assay type: cell-based; settings: A549, 10 μM, 48 hours; control group 75.31 ± 8.19
Method: as §1
This example was a scratch assay to evaluate the inhibitory effect of the polypeptide or derivative thereof (N1-N54) on the migration ability of human non-small cell lung cancer (A549). The experimental method was as described in Example 2.

[6] = tested on: human lung cancer cells (95D); experiment: scratch assay, migration of 95D cells; assay type: cell-based; settings: 10 μM, 48 hours, control group 55.3 ± 3.19
Method: as §1
This example was a scratch assay to evaluate the inhibitory effect of the polypeptide or derivative thereof (N1-N54) on the migration ability of human lung cancer cells (95D). The experimental method was as described in Example 2.

[7] = tested on: human melanoma cells (A375); experiment: scratch assay, migration of A375 cells; assay type: cell-based; settings: A375, 10 μM, 48 hours; control group 44.03 ± 6.21
Method: as §1
This example was a scratch assay to evaluate the inhibitory effect of the polypeptide or derivative thereof (N1-N54) on the migration ability of human melanoma cells (A375). The experimental method was as described in Example 2.

[8] = tested on: human thyroid cancer cells (FRO); experiment: scratch assay, migration of FRO cells; assay type: cell-based; settings: 10 μM, 48 hours, control group 60.34 ± 8.32
Method: as §1
This example was a scratch assay to evaluate the inhibitory effect of the polypeptide or derivative thereof (N1-N54) on the migration ability of human thyroid cancer cells (FRO). The experimental method was as described in Example 2.

[9] = tested on: human pancreatic cancer cells (PANC-1); experiment: scratch assay, migration of PANC-1 cells; assay type: cell-based; settings: PANC-1, 10 μM, 48 hours; control group 66.65 ± 3.37
Method: as §1
This example was a scratch assay to evaluate the inhibitory effect of the polypeptide or derivative thereof (N1-N54) on the migration ability of human pancreatic cancer cells (PANC-1). The experimental method was as described in Example 2.

Substance: N9: SEQ ID NO: 1 with deletion of positions 15-18 and PEG modification at the amino terminal ({PEG}-YRVRFLAKENVTQD; reading uncertain)
- Migration rate (%) (mean ± SD, P) [1]: 15.96 ± 3.92,* %
- Migration rate (%) (mean ± SD, P) [2]: 25.96 ± 3.84,** %
- Number of cells (mean ± SD, P), invaded cells [3]: 93 ± 6,****
- Weight of tumor (g) (mean ± SD) [4]: 0.82 ± 0.29 g
- Volume of tumor (mm^3) (mean ± SD) [4]: 1241.9 ± 388.92 mm^3
- Migration rate (%) (mean ± SD, P) [5]: 56.92 ± 4.49,** %
- Migration rate (%) (mean ± SD, P) [6]: 32.27 ± 4.69,** %
- Migration rate (%) (mean ± SD, P) [7]: 8.96 ± 2.46,*** %
- Migration rate (%) (mean ± SD, P) [8]: 20.51 ± 5.04,** %
- Migration rate (%) (mean ± SD, P) [9]: 29.12 ± 5.84,*** %

Substance: N10: SEQ ID NO: 1 with deletion of positions 15-18 and 1-3 and PEG modification at the carboxyl terminal (RFLAKENVTQD-{PEG}; reading uncertain)
- Migration rate (%) (mean ± SD, P) [1]: 13.6 ± 4.62,** %
- Migration rate (%) (mean ± SD, P) [2]: 8.70 ± 2.39,*** %
- Number of cells (mean ± SD, P), invaded cells [3]: 159 ± 12,****
- Weight of tumor (g) (mean ± SD) [4]: 0.86 ± 0.17 g
- Volume of tumor (mm^3) (mean ± SD) [4]: 1211.62 ± 670.09 mm^3
- Migration rate (%) (mean ± SD, P) [5]: 26.86 ± 8.78,** %
- Migration rate (%) (mean ± SD, P) [6]: 34.35 ± 5.74,** %
- Migration rate (%) (mean ± SD, P) [7]: 6.71 ± 2.07,*** %
- Migration rate (%) (mean ± SD, P) [8]: 14.14 ± 3.64,*** %
- Migration rate (%) (mean ± SD, P) [9]: 32.80 ± 5.89,** %

Substance: N11: SEQ ID NO: 1 with deletion of positions 15-18 and 1-3 and PEG modification at the amino terminal ({PEG}-RFLAKENVTQD; reading uncertain)
- Migration rate (%) (mean ± SD, P) [1]: 10.68 ± 5.72,** %
- Migration rate (%) (mean ± SD, P) [2]: 13.81 ± 2.92,*** %
- Number of cells (mean ± SD, P), invaded cells [3]: 66 ± 14,****
- Weight of tumor (g) (mean ± SD) [4]: 1.3 ± 0.23 g
- Volume of tumor (mm^3) (mean ± SD) [4]: 1419.28 ± 615.42 mm^3
- Migration rate (%) (mean ± SD, P) [5]: 30.79 ± 6.74,** %
- Migration rate (%) (mean ± SD, P) [6]: 28.28 ± 3.68,*** %
- Migration rate (%) (mean ± SD, P) [7]: 11.54 ± 2.23,*** %
- Migration rate (%) (mean ± SD, P) [8]: 10.09 ± 4.33,*** %
- Migration rate (%) (mean ± SD, P) [9]: 28.37 ± 7.57,** %

Substance: N12: SEQ ID NO: 1 with deletion of position 18 and positions 1-2 (VRFLAKENVTQDAED)
- Migration rate (%) (mean ± SD, P) [1]: 15.41 ± 3.55,** %
- Migration rate (%) (mean ± SD, P) [2]: 8.14 ± 3.00,*** %
- Number of cells (mean ± SD, P), invaded cells [3]: 180 ± 17,****
- Weight of tumor (g) (mean ± SD) [4]: 0.85 ± 0.19 g
- Volume of tumor (mm^3) (mean ± SD) [4]: 1275.34 ± 221.5 mm^3
- Migration rate (%) (mean ± SD, P) [5]: 20.05 ± 8.79,** %
- Migration rate (%) (mean ± SD, P) [6]: 28.72 ± 2.96,** %
- Migration rate (%) (mean ± SD, P) [7]: 12.46 ± 3.75,*** %
- Migration rate (%) (mean ± SD, P) [8]: 7.67 ± 3.29,*** %
- Migration rate (%) (mean ± SD, P) [9]: 23.26 ± 6.90,** %
